What all share (type): cell-based, Murine
Test [1] deals with EGFR InsGY Ba/F3 cell line (Homo sapiens, UniProt P00533, DELINS770-770GY, cells depend on it). The test is described as follows: Ba/F3 cell proliferation MTS assay, EGFR InsGY. As to conditions: EGFR InsGY (D770delinsGY) Ba/F3 cells, 72 hours. In general terms: Tetrazolium dyes change colour on reduction, which living cells bring about.
Experimental: (§1) Different EGFR exon 20 insertion mutations were introduced via site directed mutagenesis into full length EGFR using the Quick Change Site-Directed Mutagenesis kit (Stratagene; La Jolla, Calif.) according to the manufacturer's instructions. All constructs were confirmed by DNA sequencing. The constructs were shuttled into the retroviral vector JP1540 using the BD Creator™ System (BD Biosciences). […] Stable clones were obtained by selection in puromycin (2 μg/ml) and growth in IL-3 free media.
(§2) Murine Ba/F3 cells engineered to express mutant and wild type EGFR or HER2 protein were used to perform single drug screens. Cell viability was assessed after 72 hours of compound exposure using the colorimetric cell proliferation MTS assay kit (Promega).
(§3) The curves were fitted using a non-linear regression model with a sigmoidal dose response.
The target of test [2] is HER2 InsYVMA Ba/F3 cell line (Homo sapiens, UniProt P04626, DUP772-775, cells depend on it). Nature of the test: Ba/F3 cell proliferation MTS assay, HER2 InsYVMA.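 Note: murine Ba/F3 cells engineered to carry mutant HER2, viability read colorimetrically by MTS after 72 h of exposure, EC50 from sigmoidal non-linear regression of dose response.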 Conditions: 72 hours.
Experimental: as §2, §3
Test [3] concerns the target EGFR InsSVD Ba/F3 cell line (Homo sapiens, UniProt P00533, DUP768-770, cells depend on it). Nature of the test: Ba/F3 cell proliferation MTS assay, EGFR InsSVD. Conditions: EGFR InsSVD (D770_N771insSVD) Ba/F3 cells, 72 hours.
Experimental: as §1, §2, §3
Test [4] concerns the target EGFR InsASV Ba/F3 cell line (Homo sapiens, UniProt P00533, DUP767-769, cells depend on it). The test is described as follows: Ba/F3 cell proliferation MTS assay, EGFR InsASV. Conditions: EGFR InsASV (V769_D770insASV) Ba/F3 cells, 72 hours.
Experimental: as §1, §2, §3
Test [5] has as its target EGFR wild type Ba/F3 cell line (Homo sapiens, UniProt P00533, cells depend on it, form not given). Nature of the test: Ba/F3 cell proliferation MTS assay, EGFR wild type. Conditions: 72 hours.
Test [6] has as its target HER2 wild type Ba/F3 cell line (Homo sapiens, UniProt P04626). The test is described as follows: Ba/F3 cell proliferation MTS assay, HER2 wild type. As to conditions: HER2 wild type Ba/F3 cells, 72 hours.
Experimental: as §2, §3

Sequence of HER2 wild type Ba/F3 cell line (P04626 whole entry, change not shown): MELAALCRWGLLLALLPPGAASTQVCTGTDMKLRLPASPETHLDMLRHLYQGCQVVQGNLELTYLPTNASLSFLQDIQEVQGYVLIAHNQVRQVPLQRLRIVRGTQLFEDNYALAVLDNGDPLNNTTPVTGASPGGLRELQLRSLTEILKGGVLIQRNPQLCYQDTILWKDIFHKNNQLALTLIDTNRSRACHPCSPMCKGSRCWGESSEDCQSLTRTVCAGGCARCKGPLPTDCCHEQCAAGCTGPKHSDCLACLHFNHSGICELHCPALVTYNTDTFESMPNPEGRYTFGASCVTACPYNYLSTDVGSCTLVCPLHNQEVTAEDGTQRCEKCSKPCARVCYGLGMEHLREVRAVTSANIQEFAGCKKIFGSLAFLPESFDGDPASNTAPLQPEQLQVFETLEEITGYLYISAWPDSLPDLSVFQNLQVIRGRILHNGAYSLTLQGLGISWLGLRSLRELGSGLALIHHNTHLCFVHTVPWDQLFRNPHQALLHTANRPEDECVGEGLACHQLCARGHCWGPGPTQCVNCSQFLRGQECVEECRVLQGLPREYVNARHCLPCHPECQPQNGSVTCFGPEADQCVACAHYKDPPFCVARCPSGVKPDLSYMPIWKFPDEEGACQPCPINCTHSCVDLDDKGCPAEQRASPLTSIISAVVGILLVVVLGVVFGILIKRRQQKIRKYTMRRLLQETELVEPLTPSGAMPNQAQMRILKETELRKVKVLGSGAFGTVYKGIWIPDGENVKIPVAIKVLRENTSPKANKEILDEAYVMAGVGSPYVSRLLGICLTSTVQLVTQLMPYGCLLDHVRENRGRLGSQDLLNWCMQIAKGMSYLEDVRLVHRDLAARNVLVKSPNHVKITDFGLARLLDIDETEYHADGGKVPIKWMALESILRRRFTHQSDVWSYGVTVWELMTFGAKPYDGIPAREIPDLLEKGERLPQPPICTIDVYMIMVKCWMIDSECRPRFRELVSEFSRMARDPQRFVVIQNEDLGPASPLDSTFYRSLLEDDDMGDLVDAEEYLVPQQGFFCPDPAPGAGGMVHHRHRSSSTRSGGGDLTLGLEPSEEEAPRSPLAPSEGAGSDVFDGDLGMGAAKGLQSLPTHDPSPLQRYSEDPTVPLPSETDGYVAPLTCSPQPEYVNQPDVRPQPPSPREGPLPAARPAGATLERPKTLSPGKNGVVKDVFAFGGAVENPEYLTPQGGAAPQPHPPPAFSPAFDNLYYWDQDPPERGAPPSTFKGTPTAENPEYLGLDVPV
Sequence of EGFR wild type Ba/F3 cell line (P00533 whole entry, change not shown): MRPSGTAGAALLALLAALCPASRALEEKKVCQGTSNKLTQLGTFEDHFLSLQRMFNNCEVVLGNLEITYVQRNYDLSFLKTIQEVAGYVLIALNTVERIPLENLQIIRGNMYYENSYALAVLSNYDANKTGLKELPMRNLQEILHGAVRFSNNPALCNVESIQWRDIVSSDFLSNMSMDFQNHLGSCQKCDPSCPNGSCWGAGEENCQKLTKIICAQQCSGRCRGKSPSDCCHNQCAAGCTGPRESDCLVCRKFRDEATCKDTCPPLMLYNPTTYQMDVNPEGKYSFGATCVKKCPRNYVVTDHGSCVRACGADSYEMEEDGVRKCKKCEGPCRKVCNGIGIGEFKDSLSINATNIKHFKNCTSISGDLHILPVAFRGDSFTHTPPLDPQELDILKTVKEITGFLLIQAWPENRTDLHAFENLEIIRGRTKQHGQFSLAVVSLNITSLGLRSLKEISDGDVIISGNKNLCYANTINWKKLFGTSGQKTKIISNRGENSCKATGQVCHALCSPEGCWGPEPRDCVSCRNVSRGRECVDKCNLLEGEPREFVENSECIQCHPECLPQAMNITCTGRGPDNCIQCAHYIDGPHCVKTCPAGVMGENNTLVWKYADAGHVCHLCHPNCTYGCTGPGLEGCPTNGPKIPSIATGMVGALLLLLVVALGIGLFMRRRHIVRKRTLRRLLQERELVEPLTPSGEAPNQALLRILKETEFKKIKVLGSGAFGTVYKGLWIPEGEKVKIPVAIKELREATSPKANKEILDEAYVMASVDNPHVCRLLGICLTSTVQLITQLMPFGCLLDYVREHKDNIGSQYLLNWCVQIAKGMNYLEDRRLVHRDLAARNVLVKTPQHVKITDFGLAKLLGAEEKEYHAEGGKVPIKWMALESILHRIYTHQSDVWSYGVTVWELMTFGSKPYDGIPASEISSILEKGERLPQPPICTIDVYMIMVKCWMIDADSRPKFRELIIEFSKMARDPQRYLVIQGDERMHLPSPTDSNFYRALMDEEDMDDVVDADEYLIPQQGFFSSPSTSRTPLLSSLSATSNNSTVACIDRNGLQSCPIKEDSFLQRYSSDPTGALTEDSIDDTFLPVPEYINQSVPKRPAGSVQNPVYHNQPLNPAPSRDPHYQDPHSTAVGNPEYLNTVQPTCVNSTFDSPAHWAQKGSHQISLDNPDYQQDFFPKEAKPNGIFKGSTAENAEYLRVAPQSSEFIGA
Sequence of HER2 InsYVMA Ba/F3 cell line (P04626 with tags, fused parts or gaps DUP772-775): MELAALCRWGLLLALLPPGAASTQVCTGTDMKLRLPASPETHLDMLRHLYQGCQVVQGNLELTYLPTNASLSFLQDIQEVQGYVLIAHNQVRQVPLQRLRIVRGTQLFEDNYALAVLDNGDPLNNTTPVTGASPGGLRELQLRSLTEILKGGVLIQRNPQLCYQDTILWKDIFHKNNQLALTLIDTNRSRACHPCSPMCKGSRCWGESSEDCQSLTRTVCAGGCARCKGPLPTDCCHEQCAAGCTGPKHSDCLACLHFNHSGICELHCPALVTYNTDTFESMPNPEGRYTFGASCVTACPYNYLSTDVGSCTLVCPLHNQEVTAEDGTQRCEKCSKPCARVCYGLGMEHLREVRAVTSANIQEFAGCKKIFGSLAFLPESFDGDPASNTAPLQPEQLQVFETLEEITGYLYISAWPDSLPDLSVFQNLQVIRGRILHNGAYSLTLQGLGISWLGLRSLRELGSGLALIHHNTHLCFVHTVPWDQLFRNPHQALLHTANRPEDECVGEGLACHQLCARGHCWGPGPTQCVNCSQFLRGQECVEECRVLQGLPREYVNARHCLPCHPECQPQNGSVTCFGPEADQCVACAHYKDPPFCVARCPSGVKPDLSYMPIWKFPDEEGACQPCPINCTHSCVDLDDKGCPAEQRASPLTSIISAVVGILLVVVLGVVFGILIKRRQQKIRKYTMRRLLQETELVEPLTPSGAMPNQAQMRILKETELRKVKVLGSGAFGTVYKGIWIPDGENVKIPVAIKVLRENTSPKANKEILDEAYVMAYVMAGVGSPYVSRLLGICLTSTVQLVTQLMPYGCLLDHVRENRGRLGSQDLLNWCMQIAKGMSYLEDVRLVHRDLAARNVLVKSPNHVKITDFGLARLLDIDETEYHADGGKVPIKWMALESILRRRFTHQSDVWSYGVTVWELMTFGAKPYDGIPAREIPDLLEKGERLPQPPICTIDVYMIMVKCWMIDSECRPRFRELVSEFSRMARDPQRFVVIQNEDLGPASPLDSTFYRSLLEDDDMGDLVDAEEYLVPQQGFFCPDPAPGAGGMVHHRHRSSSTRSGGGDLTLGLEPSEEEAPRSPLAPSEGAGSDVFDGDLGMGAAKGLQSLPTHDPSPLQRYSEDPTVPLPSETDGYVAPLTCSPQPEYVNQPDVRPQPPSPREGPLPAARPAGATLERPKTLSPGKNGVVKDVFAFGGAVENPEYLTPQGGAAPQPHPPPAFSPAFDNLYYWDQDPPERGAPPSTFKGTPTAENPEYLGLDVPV
Sequence of EGFR InsGY Ba/F3 cell line (P00533 with tags, fused parts or gaps DELINS770-770GY): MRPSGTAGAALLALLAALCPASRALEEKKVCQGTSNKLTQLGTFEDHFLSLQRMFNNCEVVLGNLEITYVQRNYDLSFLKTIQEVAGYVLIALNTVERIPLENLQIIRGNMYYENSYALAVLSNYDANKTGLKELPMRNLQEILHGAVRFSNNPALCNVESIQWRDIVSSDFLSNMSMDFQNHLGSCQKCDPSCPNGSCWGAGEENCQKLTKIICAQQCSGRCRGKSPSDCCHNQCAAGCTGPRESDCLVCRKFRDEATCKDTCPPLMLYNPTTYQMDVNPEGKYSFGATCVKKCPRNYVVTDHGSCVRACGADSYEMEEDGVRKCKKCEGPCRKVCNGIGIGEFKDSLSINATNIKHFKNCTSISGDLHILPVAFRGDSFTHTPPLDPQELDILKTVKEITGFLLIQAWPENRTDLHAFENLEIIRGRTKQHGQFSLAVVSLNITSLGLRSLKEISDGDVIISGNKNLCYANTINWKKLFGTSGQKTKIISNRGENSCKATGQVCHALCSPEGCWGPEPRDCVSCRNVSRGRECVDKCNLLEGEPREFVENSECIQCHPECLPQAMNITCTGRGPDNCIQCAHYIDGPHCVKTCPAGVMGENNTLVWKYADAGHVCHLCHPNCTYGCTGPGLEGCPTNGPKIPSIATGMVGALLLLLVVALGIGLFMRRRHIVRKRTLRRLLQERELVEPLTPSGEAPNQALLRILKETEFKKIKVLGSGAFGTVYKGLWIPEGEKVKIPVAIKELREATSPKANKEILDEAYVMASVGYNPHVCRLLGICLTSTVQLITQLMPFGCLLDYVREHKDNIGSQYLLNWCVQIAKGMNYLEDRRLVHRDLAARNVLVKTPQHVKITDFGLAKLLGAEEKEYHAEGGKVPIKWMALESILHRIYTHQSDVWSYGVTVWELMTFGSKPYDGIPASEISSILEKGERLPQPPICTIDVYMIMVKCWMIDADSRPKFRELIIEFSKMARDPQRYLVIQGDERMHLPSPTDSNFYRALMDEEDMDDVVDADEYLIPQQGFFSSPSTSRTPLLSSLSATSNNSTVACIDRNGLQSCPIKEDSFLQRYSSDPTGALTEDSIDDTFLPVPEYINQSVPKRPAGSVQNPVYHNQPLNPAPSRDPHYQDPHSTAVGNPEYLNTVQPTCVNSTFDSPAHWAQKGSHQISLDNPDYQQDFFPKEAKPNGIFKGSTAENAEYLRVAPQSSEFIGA

As to `C=CC(=O)Nc1cccc(N(C(=O)OCc2ccc(F)cn2)c2ccnc(Nc3ccn(C)n3)n2)c1` [Compound I-10, (5-fluoropyridin-2-yl)methyl (3-acrylamidophenyl)(2-((1-methyl-1H-pyrazol-3-yl)amino)pyrimidin-4-yl)carbamate], the EC50 – broadly, the concentration needed to bring the measured effect to its halfway point – in test [1] is 500 to 1000 nM; in test [2] it was 500 to 1000 nM; in test [3] it was 100 to 500 nM; in test [4] it was 500 to 1000 nM; in test [5] it was under 100 nM; in test [6], 100 to 500 nM.
With `C=CC(=O)Nc1cccc(N(C(=O)O[C@@H](C)c2ccc(F)cc2)c2ccnc(Nc3cnn(C)c3)n2)c1` [Compound I-17, (S)-1-(4-fluorophenyl)ethyl (3-acrylamidophenyl)(2-((1-methyl-1H-pyrazol-4-yl)amino)pyrimidin-4-yl)carbamate], the EC50 was under 100 nM in test [1]; under 100 nM in test [2]; under 100 nM in test [3]; 100 to 500 nM in test [4]; under 100 nM in test [5]; under 100 nM in test [6].
For `C=CC(=O)Nc1cccc(N(C(=O)O[C@@H](C)c2ccc(F)cc2)c2ccnc(Nc3ccn(C)n3)n2)c1` [Compound I-16, (S)-1-(4-fluorophenyl)ethyl (3-acrylamidophenyl)(2-((1-methyl-1H-pyrazol-3-yl)amino)pyrimidin-4-yl)carbamate], the EC50 in test [1] was 100 to 500 nM; in test [2] it was 500 to 1000 nM; in test [3], 100 to 500 nM; in test [4], 500 to 1000 nM; in test [5], under 100 nM; in test [6], under 100 nM.
As for `C=CC(=O)Nc1cccc(N(C(=O)OCc2ccc(Cl)cc2)c2ccnc(Nc3cnn(C)c3)n2)c1` [Compound I-9, 4-chlorobenzyl (3-acrylamidophenyl)(2-((1-methyl-1H-pyrazol-4-yl)amino)pyrimidin-4-yl)carbamate], the EC50 in test [1] was 100 to 500 nM; in test [2], 100 to 500 nM; in test [3], 100 to 500 nM; in test [4] it was 500 to 1000 nM; in test [5], under 100 nM; in test [6] it was under 100 nM.
For the compound `C=CC(=O)Nc1cccc(N(C(=O)OCc2ccccc2)c2ccnc(Nc3ccn(C)n3)n2)c1` [Compound I-1, benzyl (3-acrylamidophenyl)(2-((1-methyl-1H-pyrazol-3-yl)amino)pyrimidin-4-yl)carbamate], the EC50 in test [1] is under 100 nM; in test [2], under 100 nM; in test [3] it was under 100 nM; in test [4], 100 to 500 nM; in test [5] it was under 100 nM; in test [6] it was under 100 nM.
Regarding `C=CC(=O)Nc1cccc(N(C(=O)OCc2ccc(F)nc2)c2ccnc(Nc3cnn(C)c3)n2)c1` [Compound I-13, (6-fluoropyridin-3-yl)methyl (3-acrylamidophenyl)(2-((1-methyl-1H-pyrazol-4-yl)amino)pyrimidin-4-yl)carbamate], the EC50 in test [1] was over 1000 nM; in test [2], over 1000 nM; in test [3], over 1000 nM; in test [4], over 1000 nM; in test [5], 100 to 500 nM; in test [6], 100 to 500 nM.
In the case of `C=CC(=O)Nc1cccc(N(C(=O)OCc2ccc(F)cn2)c2ccnc(Nc3cnn(C)c3)n2)c1` [Compound I-11, (5-fluoropyridin-2-yl)methyl (3-acrylamidophenyl)(2-((1-methyl-1H-pyrazol-4-yl)amino)pyrimidin-4-yl)carbamate], the EC50 in test [1] is 500 to 1000 nM; in test [2] it was 500 to 1000 nM; in test [3] it was 500 to 1000 nM; in test [4], over 1000 nM; in test [5], under 100 nM; in test [6], 100 to 500 nM.
On to `C=CC(=O)Nc1cccc(N(C(=O)O[C@H](C)c2ccc(F)cc2)c2ccnc(Nc3ccn(C)n3)n2)c1` [Compound I-14, (R)-1-(4-fluorophenyl)ethyl (3-acrylamidophenyl)(2-((1-methyl-1H-pyrazol-3-yl)amino)pyrimidin-4-yl)carbamate], for which the EC50 in test [1] was 500 to 1000 nM; in test [3] it was 500 to 1000 nM; in test [4] it was over 1000 nM; in test [5], 100 to 500 nM; in test [6], 500 to 1000 nM.
`C=CC(=O)Nc1cccc(N(C(=O)O[C@H](C)c2ccc(F)cc2)c2ccnc(Nc3cnn(C)c3)n2)c1` [Compound I-15, (R)-1-(4-fluorophenyl)ethyl (3-acrylamidophenyl)(2-((1-methyl-1H-pyrazol-4-yl)amino)pyrimidin-4-yl)carbamate]: the EC50 is under 100 nM in test [1]; 100 to 500 nM in test [2]; under 100 nM in test [3]; 100 to 500 nM in test [4]; under 100 nM in test [5]; under 100 nM in test [6].
Turning to `C=CC(=O)Nc1cccc(N(C(=O)OCc2ccc(Cl)cc2)c2ccnc(Nc3ccn(C)n3)n2)c1` [Compound I-8, 4-chlorobenzyl (3-acrylamidophenyl)(2-((1-methyl-1H-pyrazol-3-yl)amino)pyrimidin-4-yl)carbamate], the EC50 in test [1] is 100 to 500 nM; in test [2], over 1000 nM; in test [3], over 1000 nM; in test [4], over 1000 nM; in test [5], 100 to 500 nM; in test [6] it was 100 to 500 nM.
With `C=CC(=O)Nc1cccc(N(C(=O)OCc2csc3ccccc23)c2ccnc(Nc3cnn(C)c3)n2)c1` [Compound I-19, benzo[b]thiophen-3-ylmethyl (3-acrylamidophenyl)(2-((1-methyl-1H-pyrazol-4-yl)amino)pyrimidin-4-yl)carbamate], the EC50 in test [1] is over 1000 nM; in test [2] it was over 1000 nM; in test [3], over 1000 nM; in test [4], over 1000 nM; in test [5] it was 100 to 500 nM; in test [6] it was 100 to 500 nM.
In the case of `C=CC(=O)Nc1cccc(N(C(=O)OCc2ccc(F)nc2)c2ccnc(Nc3ccn(C)n3)n2)c1` [Compound I-12, (6-fluoropyridin-3-yl)methyl (3-acrylamidophenyl)(2-((1-methyl-1H-pyrazol-3-yl)amino)pyrimidin-4-yl)carbamate], the EC50 in test [1] was 500 to 1000 nM; in test [2] it was over 1000 nM; in test [3], 500 to 1000 nM; in test [4], over 1000 nM; in test [5], 100 to 500 nM; in test [6], 100 to 500 nM.

These data come from patent US10550112B2, “Pyrimidines as EGFR inhibitors and methods of treating disorders” (Dana-Farber Cancer Institute, Inc., priority 2015, dated 2020).
